Reference: patent publication US20050019420A1, “Fungicide composition comprising pyrimethanil and at least a phosphorous acid derivative and use thereof for fighting against plant diseases” (priority 2001, published 2005)

Test system: Venturia inaequalis
Experiment: Apple tree scab field trial, preventive spray programme
Assay type: in vivo
Conditions: for % of leaves attacked: apple tree Rome Beauty
Description: Apple Tree—Venturia inaequalis
The following fungicides are compared: • Pyrimethanil at the dose of 20 g/hl and mixtures. • fosetyl-Al+pyrimethanil at the doses of 50+20 and 100+20 g/hl applied in a plant protection mixture volume of 1 200 l/ha.
The products are applied to an apple tree (Rome Beauty variety) which is sensitive to Venturia inaequalis.
The various products to be studied are sprayed every 7, 10 or 13 days (9, 7 and 6 applications in total respectively) in a program of treatment starting on 28 Mar. 2001.
Scores are awarded for the disease (% foliar surface area destroyed) on 14 May and 11 Jun. 2001. The results are expressed as % of leaves attacked.

Row | SMILES | % of leaves attacked (dose (20), sprayed every 7 days (9 applications), scored 11 June 2001) [%] | % of leaves attacked (dose (20), sprayed every 7 days (9 applications), scored 14 May 2001) [%] | % of leaves attacked (dose (200), sprayed every 10 days (7 applications), scored 11 June 2001) [%] | % of leaves attacked (dose (200), sprayed every 10 days (7 applications), scored 14 May 2001) [%] | % of leaves attacked (dose (200), sprayed every 13 days (6 applications), scored 11 June 2001) [%] | % of leaves attacked (dose (200), sprayed every 13 days (6 applications), scored 14 May 2001) [%] | persistence of the action of pyrimethanil (addition of fosetyl-Al to pyrimethanil, applications every 10 to 13 days compared with weekly applications)
1 | Cc1cc(C)nc(Nc2ccccc2)n1 [Pyrimethanil, pyrimethanil] | 27.7 | 14.7 | 33 | 16.2 | 32 | 16.3 | –
2 | CCO[PH](=O)O [fosetyl-AI, monoethyl ester-phosphonate-aluminum] | – | – | – | – | – | – | improve the persistence of the action of pyrimethanil
